Assay results from the NIST ThermoML archive (doi:10.1021/acs.jced.5b00903).
± gives the expanded uncertainty stated by the source.

How the values were obtained:
[1] = surface light scattering
[2] = xn = mol fraction of the nth substance listed; conditions: surface light scattering

`CCCCCCO` [hexan-1-ol] gave a surface tension liquid-gas ([1]; 298.15 K) of 25.56 ± 0.29 mN/m, a surface tension liquid-gas ([1]; 303.15 K) of 24.95 ± 0.28 mN/m and a surface tension liquid-gas ([1]; 308.15 K) of 24.65 ± 0.28 mN/m. For the same molecule, the surface tension liquid-gas ([1]; 313.15 K) was 23.93 ± 0.27 mN/m, the surface tension liquid-gas ([1]; 318.15 K) was 23.58 ± 0.26 mN/m and the surface tension liquid-gas ([1]; 323.15 K) was 23.21 ± 0.26 mN/m.

`CCCCCO` [pentan-1-ol] showed a surface tension liquid-gas ([1]; 298.15 K) of 25.29 ± 0.28 mN/m, a surface tension liquid-gas ([1]; 303.15 K) of 24.87 ± 0.28 mN/m and a surface tension liquid-gas ([1]; 308.15 K) of 24.46 ± 0.27 mN/m. For the same molecule, the surface tension liquid-gas ([1]; 313.15 K) was 24.05 ± 0.27 mN/m, the surface tension liquid-gas ([1]; 318.15 K) was 23.65 ± 0.26 mN/m and the surface tension liquid-gas ([1]; 323.15 K) was 23.21 ± 0.26 mN/m.

For `CC(C)CC(C)(C)C` [2,2,4-trimethylpentane], the surface tension liquid-gas ([1]; 288.15 K) was 19.14 ± 0.19 mN/m, the surface tension liquid-gas ([1]; 298.15 K) was 18.3 ± 0.18 mN/m and the surface tension liquid-gas ([1]; 303.15 K) was 17.9 ± 0.18 mN/m. For the same molecule, the surface tension liquid-gas ([1]; 308.15 K) was 17.43 ± 0.18 mN/m, the surface tension liquid-gas ([1]; 313.15 K) was 17.09 ± 0.17 mN/m and the surface tension liquid-gas ([1]; 318.15 K) was 16.56 ± 0.17 mN/m. It also gave a surface tension liquid-gas ([1]; 323.15 K) of 16.2 ± 0.2 mN/m.

Molecule `CCO` [ethanol] has a surface tension liquid-gas ([1]; 288.15 K) of 22.72 ± 0.23 mN/m, a surface tension liquid-gas ([1]; 293.15 K) of 22.31 ± 0.23 mN/m and a surface tension liquid-gas ([1]; 298.15 K) of 21.85 ± 0.23 mN/m. The surface tension liquid-gas ([1]; 303.15 K) was 21.41 ± 0.22 mN/m, the surface tension liquid-gas ([1]; 308.15 K) was 21.04 ± 0.22 mN/m and the surface tension liquid-gas ([1]; 313.15 K) was 20.62 ± 0.21 mN/m. For the same molecule, the surface tension liquid-gas ([1]; 318.15 K) was 20.29 ± 0.21 mN/m.

Molecule `CCCO` [propan-1-ol] has a surface tension liquid-gas ([1]; 298.15 K) of 23.31 ± 0.24 mN/m, a surface tension liquid-gas ([1]; 303.15 K) of 22.9 ± 0.24 mN/m and a surface tension liquid-gas ([1]; 308.15 K) of 22.52 ± 0.23 mN/m. It also gave a surface tension liquid-gas ([1]; 313.15 K) of 22.1 ± 0.23 mN/m, a surface tension liquid-gas ([1]; 318.15 K) of 21.68 ± 0.22 mN/m and a surface tension liquid-gas ([1]; 323.15 K) of 21.27 ± 0.22 mN/m.

With `CCO` [ethanol] + CCCCCCC the surface tension liquid-gas ([2]; 293.15 K, x2 = 0) was 22.31 ± 0.23 mN/m, the surface tension liquid-gas ([2]; 298.15 K, x2 = 0) was 21.85 ± 0.23 mN/m and the surface tension liquid-gas ([2]; 303.15 K, x2 = 0) was 21.41 ± 0.22 mN/m. It also gave a surface tension liquid-gas ([2]; 308.15 K, x2 = 0) of 21.04 ± 0.22 mN/m, a surface tension liquid-gas ([2]; 313.15 K, x2 = 0) of 20.62 ± 0.21 mN/m and a surface tension liquid-gas ([2]; 318.15 K, x2 = 0) of 20.29 ± 0.21 mN/m.

`CC(C)CC(C)(C)C` [2,2,4-trimethylpentane] + CCCCCCO showed a surface tension liquid-gas ([2]; 298.15 K, x1 = 1) of 18.3 ± 0.18 mN/m, a surface tension liquid-gas ([2]; 303.15 K, x1 = 1) of 17.9 ± 0.18 mN/m and a surface tension liquid-gas ([2]; 308.15 K, x1 = 1) of 17.43 ± 0.18 mN/m. It also gave a surface tension liquid-gas ([2]; 313.15 K, x1 = 1) of 17.09 ± 0.17 mN/m, a surface tension liquid-gas ([2]; 318.15 K, x1 = 1) of 16.56 ± 0.17 mN/m and a surface tension liquid-gas ([2]; 323.15 K, x1 = 1) of 16.2 ± 0.16 mN/m.

For `CCCO` [propan-1-ol] + CC(C)CC(C)(C)C, the surface tension liquid-gas ([2]; 298.15 K, x2 = 0) was 23.31 ± 0.24 mN/m, the surface tension liquid-gas ([2]; 303.15 K, x2 = 0) was 22.9 ± 0.24 mN/m and the surface tension liquid-gas ([2]; 308.15 K, x2 = 0) was 22.52 ± 0.23 mN/m. For the same molecule, the surface tension liquid-gas ([2]; 313.15 K, x2 = 0) was 22.1 ± 0.23 mN/m, the surface tension liquid-gas ([2]; 318.15 K, x2 = 0) was 21.68 ± 0.22 mN/m and the surface tension liquid-gas ([2]; 323.15 K, x2 = 0) was 21.27 ± 0.22 mN/m.

In the case of `CCCCCCC` [heptane], the surface tension liquid-gas ([1]; 293.15 K) is reported as 20.12 ± 0.23 mN/m, the surface tension liquid-gas ([1]; 298.15 K) is reported as 19.69 ± 0.22 mN/m and the surface tension liquid-gas ([1]; 303.15 K) is reported as 19.13 ± 0.21 mN/m. It also gave a surface tension liquid-gas ([1]; 308.15 K) of 18.67 ± 0.21 mN/m, a surface tension liquid-gas ([1]; 313.15 K) of 18.1 ± 0.2 mN/m and a surface tension liquid-gas ([1]; 318.15 K) of 17.7 ± 0.2 mN/m.

Work on `CCCCCCCO` [heptan-1-ol] yielded a surface tension liquid-gas ([1]; 298.15 K) of 26.46 ± 0.3 mN/m, a surface tension liquid-gas ([1]; 303.15 K) of 25.93 ± 0.29 mN/m and a surface tension liquid-gas ([1]; 308.15 K) of 25.43 ± 0.28 mN/m. It also gave a surface tension liquid-gas ([1]; 313.15 K) of 24.95 ± 0.28 mN/m, a surface tension liquid-gas ([1]; 318.15 K) of 24.55 ± 0.27 mN/m and a surface tension liquid-gas ([1]; 323.15 K) of 24.03 ± 0.27 mN/m.

With `CCO` [ethanol] + CC(C)CC(C)(C)C the surface tension liquid-gas ([2]; 288.15 K, x2 = 0) was 22.72 ± 0.23 mN/m, the surface tension liquid-gas ([2]; 298.15 K, x2 = 0) was 21.85 ± 0.23 mN/m and the surface tension liquid-gas ([2]; 308.15 K, x2 = 0) was 21.04 ± 0.22 mN/m. For the same molecule, the surface tension liquid-gas ([2]; 318.15 K, x2 = 0) was 20.29 ± 0.21 mN/m.

`CCCCCCC` [heptane] + CCO gave a surface tension liquid-gas ([2]; 293.15 K, x1 = 0.0481) of 21.78 ± 0.23 mN/m, a surface tension liquid-gas ([2]; 293.15 K, x1 = 0.1018) of 21.27 ± 0.22 mN/m and a surface tension liquid-gas ([2]; 293.15 K, x1 = 0.1676) of 20.93 ± 0.22 mN/m. It also gave a surface tension liquid-gas ([2]; 293.15 K, x1 = 0.2314) of 20.74 ± 0.22 mN/m, a surface tension liquid-gas ([2]; 293.15 K, x1 = 0.3171) of 20.53 ± 0.22 mN/m and a surface tension liquid-gas ([2]; 293.15 K, x1 = 0.4111) of 20.36 ± 0.22 mN/m. The surface tension liquid-gas ([2]; 293.15 K, x1 = 0.5123) was 20.25 ± 0.22 mN/m, the surface tension liquid-gas ([2]; 293.15 K, x1 = 0.6417) was 20.2 ± 0.22 mN/m and the surface tension liquid-gas ([2]; 293.15 K, x1 = 0.7983) was 20.17 ± 0.22 mN/m. It also gave a surface tension liquid-gas ([2]; 293.15 K, x1 = 1) of 20.12 ± 0.23 mN/m, a surface tension liquid-gas ([2]; 298.15 K, x1 = 0.0481) of 21.3 ± 0.22 mN/m and a surface tension liquid-gas ([2]; 298.15 K, x1 = 0.1018) of 20.77 ± 0.22 mN/m. For the same molecule, the surface tension liquid-gas ([2]; 298.15 K, x1 = 0.1676) was 20.41 ± 0.21 mN/m, the surface tension liquid-gas ([2]; 298.15 K, x1 = 0.2314) was 20.22 ± 0.21 mN/m and the surface tension liquid-gas ([2]; 298.15 K, x1 = 0.3171) was 20.02 ± 0.21 mN/m. The surface tension liquid-gas ([2]; 298.15 K, x1 = 0.4111) was 19.85 ± 0.21 mN/m, the surface tension liquid-gas ([2]; 298.15 K, x1 = 0.5123) was 19.75 ± 0.21 mN/m and the surface tension liquid-gas ([2]; 298.15 K, x1 = 0.6417) was 19.72 ± 0.21 mN/m. It also gave a surface tension liquid-gas ([2]; 298.15 K, x1 = 0.7983) of 19.71 ± 0.22 mN/m, a surface tension liquid-gas ([2]; 298.15 K, x1 = 1) of 19.69 ± 0.22 mN/m and a surface tension liquid-gas ([2]; 303.15 K, x1 = 0.0481) of 20.83 ± 0.22 mN/m. The surface tension liquid-gas ([2]; 303.15 K, x1 = 0.1018) was 20.27 ± 0.21 mN/m, the surface tension liquid-gas ([2]; 303.15 K, x1 = 0.1676) was 19.89 ± 0.21 mN/m and the surface tension liquid-gas ([2]; 303.15 K, x1 = 0.2314) was 19.7 ± 0.21 mN/m. For the same molecule, the surface tension liquid-gas ([2]; 303.15 K, x1 = 0.3171) was 19.48 ± 0.21 mN/m, the surface tension liquid-gas ([2]; 303.15 K, x1 = 0.4111) was 19.31 ± 0.21 mN/m and the surface tension liquid-gas ([2]; 303.15 K, x1 = 0.5123) was 19.2 ± 0.21 mN/m. It also gave a surface tension liquid-gas ([2]; 303.15 K, x1 = 0.6417) of 19.16 ± 0.21 mN/m, a surface tension liquid-gas ([2]; 303.15 K, x1 = 0.7983) of 19.15 ± 0.21 mN/m and a surface tension liquid-gas ([2]; 303.15 K, x1 = 1) of 19.13 ± 0.21 mN/m. The surface tension liquid-gas ([2]; 308.15 K, x1 = 0.0481) was 20.43 ± 0.21 mN/m, the surface tension liquid-gas ([2]; 308.15 K, x1 = 0.1018) was 19.84 ± 0.21 mN/m and the surface tension liquid-gas ([2]; 308.15 K, x1 = 0.1676) was 19.44 ± 0.2 mN/m. The surface tension liquid-gas ([2]; 308.15 K, x1 = 0.2314) was 19.24 ± 0.2 mN/m, the surface tension liquid-gas ([2]; 308.15 K, x1 = 0.3171) was 19.02 ± 0.2 mN/m and the surface tension liquid-gas ([2]; 308.15 K, x1 = 0.4111) was 18.83 ± 0.2 mN/m. It also gave a surface tension liquid-gas ([2]; 308.15 K, x1 = 0.5123) of 18.72 ± 0.2 mN/m, a surface tension liquid-gas ([2]; 308.15 K, x1 = 0.6417) of 18.69 ± 0.2 mN/m and a surface tension liquid-gas ([2]; 308.15 K, x1 = 0.7983) of 18.68 ± 0.21 mN/m. It also gave a surface tension liquid-gas ([2]; 308.15 K, x1 = 1) of 18.67 ± 0.21 mN/m, a surface tension liquid-gas ([2]; 313.15 K, x1 = 0.0481) of 20 ± 0.21 mN/m and a surface tension liquid-gas ([2]; 313.15 K, x1 = 0.1018) of 19.39 ± 0.2 mN/m. It also gave a surface tension liquid-gas ([2]; 313.15 K, x1 = 0.1676) of 18.98 ± 0.2 mN/m, a surface tension liquid-gas ([2]; 313.15 K, x1 = 0.2314) of 18.76 ± 0.2 mN/m and a surface tension liquid-gas ([2]; 313.15 K, x1 = 0.3171) of 18.53 ± 0.2 mN/m. The surface tension liquid-gas ([2]; 313.15 K, x1 = 0.4111) was 18.33 ± 0.19 mN/m, the surface tension liquid-gas ([2]; 313.15 K, x1 = 0.5123) was 18.2 ± 0.19 mN/m and the surface tension liquid-gas ([2]; 313.15 K, x1 = 0.6417) was 18.16 ± 0.2 mN/m. The surface tension liquid-gas ([2]; 313.15 K, x1 = 0.7983) was 18.13 ± 0.2 mN/m, the surface tension liquid-gas ([2]; 313.15 K, x1 = 1) was 18.1 ± 0.2 mN/m and the surface tension liquid-gas ([2]; 318.15 K, x1 = 0.0481) was 19.64 ± 0.2 mN/m. It also gave a surface tension liquid-gas ([2]; 318.15 K, x1 = 0.1018) of 19.01 ± 0.2 mN/m, a surface tension liquid-gas ([2]; 318.15 K, x1 = 0.1676) of 18.58 ± 0.19 mN/m and a surface tension liquid-gas ([2]; 318.15 K, x1 = 0.2314) of 18.36 ± 0.19 mN/m. For the same molecule, the surface tension liquid-gas ([2]; 318.15 K, x1 = 0.3171) was 18.12 ± 0.19 mN/m, the surface tension liquid-gas ([2]; 318.15 K, x1 = 0.4111) was 17.91 ± 0.19 mN/m and the surface tension liquid-gas ([2]; 318.15 K, x1 = 0.5123) was 17.79 ± 0.19 mN/m. For the same molecule, the surface tension liquid-gas ([2]; 318.15 K, x1 = 0.6417) was 17.75 ± 0.19 mN/m, the surface tension liquid-gas ([2]; 318.15 K, x1 = 0.7983) was 17.73 ± 0.19 mN/m and the surface tension liquid-gas ([2]; 318.15 K, x1 = 1) was 17.7 ± 0.2 mN/m.
